From US12612389B2, “Benzofuran-based N-acylhydrazone derivative and pharmaceutical composition comprising same” (KOREA RESEARCH INSTITUTE OF BIOSCIENCE AND BIOTECHNOLOGY, priority 2019, dated 2026)

How the values were obtained:
A172 = assay: Anti-proliferative activity in other cancer cell lines (MTT); assay type: cell-based; settings: Homo sapiens, A 172, 96 h, Brain, 4 days
Description: (§1) HeLa cells (American Type Culture Collection: ATCC, USA), a human cervical cancer cell line, were seeded in a 96-well plate at 3×10^3 cells/well, and the cells were then treated with compounds of Examples or Comparative Example according to the present invention and grown for 2 days. Then, MTT (3-(4,5-dimethylthiazol-2-yl)-2,5-diphenyltetrazolium bromide) reagent was added at 10 μL/well. After 2 hours, absorbance was measured at “OD 450” and statistical values were obtained using Prism™6 program. The data shown in Table below are mean values of results obtained by repeating the analysis twice.
(§2) Specifically, various cancer cell lines were cultured in a microtiter plate (1-3×10^3 cells/well), treated with the compound of Example 4 according to the present invention, and cultured for 4 days. Cytotoxicity was tested by MTT assay in the same manner as in Experimental Example 1-1, and IC50 was obtained by a log-dose response curve. The data shown in Table below are mean values of results obtained by repeating the analysis three times.

A431 = assay: as above; assay type: cell-based; settings: Homo sapiens, A-431, 96 h, Skin, 4 days
Description: as §1, §2

A498 = assay: as above; assay type: cell-based; settings: Homo sapiens, 96 h, Kidney, 4 days
Description: as §1, §2

A549 = assay: as above; assay type: cell-based; settings: Homo sapiens, 96 h, A549 (line stands under Liver), 4 days
Description: as §1, §2

Colo 205 = assay: as above; assay type: cell-based; settings: Homo sapiens, 96 h, Colon, 4 days
Description: as §1, §2

HCC1954 = assay: as above; assay type: cell-based; settings: Homo sapiens, 96 h, Breast, 4 days
Description: as §1, §2

HCT-15 = assay: as above; assay type: cell-based; settings: Homo sapiens, 96 h, Colon, 4 days
Description: as §1, §2

HeLa CCL2 = assay: as above; assay type: cell-based; settings: Homo sapiens, 96 h, Cervix, 4 days
Description: as §1, §2

MDA-MB-468 = assay: as above; assay type: cell-based; settings: Homo sapiens, 96 h, Breast, 4 days
Description: as §1, §2

NCI-H125 = assay: as above; assay type: cell-based; settings: Homo sapiens, 96 h, Lung, 4 days
Description: as §1, §2

NCI-H226 = assay: as above; assay type: cell-based; settings: Homo sapiens, 96 h, Lung, 4 days
Description: as §1, §2

NCI-H460 = assay: as above; assay type: cell-based; settings: Homo sapiens, 96 h, Lung, 4 days
Description: as §1, §2

NCI-H522 = assay: as above; assay type: cell-based; settings: Homo sapiens, 96 h, Lung, 4 days
Description: as §1, §2

PC3 = assay: as above; assay type: cell-based; settings: Homo sapiens, PC-3, 96 h, Prostate, 4 days
Description: as §1, §2

SK-MEL 5 = assay: as above; assay type: cell-based; settings: Homo sapiens, 96 h, Skin, 4 days
Description: as §1, §2

SK-N-MC = assay: as above; assay type: cell-based; settings: Homo sapiens, 96 h, Brain, 4 days
Description: as §1, §2

SNU 484 = assay: as above; assay type: cell-based; settings: 96 h, Stomach, 4 days
Description: as §1, §2

U-2-OS = assay: as above; assay type: cell-based; settings: Homo sapiens, U2OS, 96 h, Bone, 4 days
Description: as §1, §2

U373MG = assay: as above; assay type: cell-based; settings: Homo sapiens, U373 MG, 96 h, Brain, 4 days
Description: as §1, §2

HDF (human) = assay: Cytotoxicity in normal cells (MTT); assay type: cell-based; settings: 96 h, Normal cell, 4 days
K562/ADR = assay: Anti-proliferative activity test in cancer cells exhibiting multidrug resistance (MTT); assay type: cell-based
Description: (§3) HeLa cells (American Type Culture Collection: ATCC, USA), a human cervical cancer cell line, were seeded in a 96-well plate at 3×10^3 cells/well, and the cells were then treated with compounds of Examples or Comparative Example according to the present invention and grown for 2 days. Then, MTT (3-(4,5-dimethylthiazol-2-yl)-2,5-diphenyltetrazolium bromide) reagent was added at 10 μL/well. […] The data shown in Table below are mean values of results obtained by repeating the analysis twice. Specifically, K562 and MCF7 (Bio Evaluation Center, Korea Research Institute of Bioscience and Biotechnology, Korea) and multidrug-resistant cell lines of each of these cell lines, i.e., K562/ADR and MCF7/ADR (Bio Evaluation Center, Korea Research Institute of Bioscience and Biotechnology, Korea), were cultured on microtiter plates (1-3×10^3 cells/well). […] The data shown in Table below are mean values of results obtained by repeating the analysis three times.

MCF7/ADR = assay: as above; assay type: cell-based
Description: as §3

HeLa CCL2 cell line = assay: Effect test on cell cycle progression (propidium iodine, FACS); assay type: cell-based, human
HeLa CCL2 cells [1] = assay: Wound healing assay; assay type: cell-based, human; settings: up to 100 nM, FIGS. 6A and 6B
Description: HeLa CCL2 cells were cultured in 6 wells at 100%, wounded with a yellow tip, and treated with 50 nM and 100 nM of the compound of Example 4. In order to observe the effect of the drug, the degree of cell migration was compared and observed by recording the state of the cells before treatment as images, and comparing the cell state before drug treatment with the state of the cells at 24, 36, and 48 hours post the drug treatment. The concentration of the compound of Example 4 treated with the cells was determined by performing MTT assay.

HeLa CCL2 cells [2] = assay: In vitro invasion assay (trans well); assay type: cell-based, human; settings: 10 nM, 50 nM, 100 nM, 250 nM, 16 hours, FIGS. 7A and 7B
Description: In addition, in order to confirm the efficacy of inhibiting cell migration again, an invasion assay was performed. A trans well chamber for a 24-well plate was prepared, and HeLa CCL2 cells at a density of 5×10^4 were put into the upper chamber, treated with 10 nM, 50 nM, 100 nM, and 250 nM of the compound of Example 4, and cultured. Then, after 16 hours, the migrated cells were identified and the number thereof was measured through cell staining.

Work on `CCOCCn1c(Cl)c(/C=N/NC(=O)c2cc3cc(C)ccc3o2)c2ccccc21` [Example 4, (E)-N′-[(2-chloro-1-(2-ethoxyethyl)-1H-indol-3-yl]methylene}-5-methylbenzofuran-2-carbohydrazide] yielded an IC50 (A172) of 790 ± 90 nM, an IC50 (A431) of 220 ± 17 nM and an IC50 (A498) of 170 ± 8 nM. For the same compound, the IC50 (A549) was 630 ± 120 nM, the IC50 (Colo 205) was 360 ± 490 nM and the IC50 (HCC1954) was 410 ± 50 nM. The IC50 (HCT-15) was 280 ± 70 nM, the IC50 (HeLa CCL2) was 180 ± 4 nM and the IC50 (MDA-MB-468) was 690 ± 30 nM. The IC50 (NCI-H125) was 370 ± 200 nM, the IC50 (NCI-H226) was 420 ± 60 nM and the IC50 (NCI-H460) was 500 ± 90 nM. The IC50 (NCI-H522) was 370 ± 130 nM, the IC50 (PC3) was 710 ± 180 nM and the IC50 (SK-MEL 5) was 460 ± 140 nM. The IC50 (SK-N-MC) was 980 ± 110 nM, the IC50 (SNU 484) was 350 ± 70 nM and the IC50 (U-2-OS) was 420 ± 60 nM. The IC50 (U373MG) was 360 ± 10 nM, the IC50 (HDF (human)) was 27000 ± 7890 nM and the IC50 (K562/ADR; Homo sapiens, 96 h, K562/ADR (multidrug-resistant), 4 days, MTT) was 201 nM. For the same compound, the “Resistance Factor” value (K562/ADR; ratio IC50 K562/ADR to IC50 K562) was 0.57, the IC50 (MCF7/ADR; Homo sapiens, NCI/ADR-RES, 96 h, MCF7/ADR (multidrug-resistant), 4 days, MTT) was 332 nM and the “Resistance Factor” value (MCF7/ADR; ratio IC50 MCF7/ADR to IC50 MCF7) was 0.40. For the same compound, the “number of cells in G2/M phase as a percentage” value (HeLa CCL2 cell line; 0.2 μM, FACS) was 82.36%, the “cells stopped in the mitotic phase” value (HeLa CCL2 cell line; 16 hours post treatment) was at least 80% and the “Effect (μM): concentration at which cells were collected in the mitotic phase” value (HeLa CCL2 cell line; FACS) was 0.2 µM. For the same compound, the IC50 (HeLa CCL2 cell line; Homo sapiens, as stated in text on Table 5) was 200 nM, the “effect on cell growth” value (HeLa CCL2 cells [1]) was “did not have a significant effect on cell growth” and the “cancer metastasis inhibitory effect (migrated cells)” value (HeLa CCL2 cells [2]) was “excellent cancer metastasis inhibitory effect”.
